Read-outs that look alike come from different tables or passages of the source. Marks after values point to notes of the source that are not given here.
Tests used:
[1] = system: CCRF-CEM human T-cell acute lymphoblastic leukemia cell line; assay: XTT cytotoxicity (cell growth inhibition), CCRF-CEM
Description: (§1) The DC-3F hamster lung fibroblast cell line and its actinomycin D-selected sublines (DC-3F/ADII and DC-3F/ADX) were obtained from the Memorial Sloan-Kettering Cancer Center (MSKCC).
(§2) The drug-resistant cell lines were continuously cultured in the presence of the selecting agent, AD, DX, VBL or VM to maintain the drug resistant phenotypes. […] All cells were cultured in RPMI 1640-10% FBS at 37° C. 5% CO2 (see below).
(§3) The cells were cultured at an initial density of 5×10^4 cells/mL. They were maintained in a 5% CO2-humidified atmosphere at 37° C. in RPMI-1640 medium (GIBCO-BRL, Gaithersburg, Md.) containing penicillin (100 U/mL), streptomycin ([…]) (GIBCO-BRL) and 10% heat inactivate fetal bovine serum. Culture for cell suspension (such as for CCRF-CEM, P388 and sublines), were performed by the XTT-microculture tetrazonium method (Scudiero, D. A. et al., Cancer Res. 1988, 48, 4827-4833) in duplicate in 96-well microtiter plates.
(§4) 2′,3′-Bis(methoxy-4-nitro-5-sufophenyl)-5-[(phenylamino)carbonyl]2H-tetrazolium hyudroxide (XTT) was prepared at 1 mg/mL in prewarmed (37° C.) medium without serum. Phenazine methosulfate (PMS) and fresh XTT were mixed together to obtain 0.025 mM PMS-XTT solution (25 μL of the stock 5 mM PMS was added per 5 mL of 1 mg/mL XTT). Following a 72 h incubation, 50 μL of the assay aliquots were added to each well of the cell culture. After incubation at 37° C. for 4 h, absorbance at 450 nm and 630 nm was measured with a microplate reader (EL340, Bio-Tek Instruments, Inc., Winooski, Vt.).

[2] = system: CCRF-CEM/VBL100; assay: cells; type: cell-based, human
Description: as §2, §3, §4

[3] = system: CCRF-CEM/VM1; assay: cells; type: cell-based, human
Description: as §2, §3, §4

[4] = system: DC-3F hamster lung fibroblast cell line; assay: SRB cytotoxicity, DC-3F; type: cell-based; conditions: Table 3; read-out: IC50
Description: as §1, §2
(§5) The cytotoxicity of the drug toward the monolayer cell cultures (such as DC-3F, MCF-7, SK-N-As and sublines) was determined in 96-well microtiter plates by the SRB method as described by Skehan and co-workers (Skehan, P., et al., J. Natl. Cancer Inst. 1990, 82, 1107-1112) for measuring the cellular protein content. Cultures were fixed with trichloroacetic acid and then stained for 30 min with 0.4% suforhodamine B dissolved in 1% acetic acid. Unbound dye was removed by acetic acid washes, and the protein-bound dye was extracted with an unbuffered Tris base (tris(hydroxy-methyl)aminomethane) for determination of absorbance at 570 nm in a 96-well microtiter plate reader. The experiments were carried out in duplicate. Each run entailed six to seven concentrations of the tested drugs. Data were analyzed with the median-effect plot (Chou, T.-C. & Talalay, P. T. (1984) Adv. Enzyme Regul. 22, 27-55) using a previously described computer program (Chou, J., & Chou T.-C. 1987, Dose-effect analysis with microcomputers: Quantitation of ED50, synergism, antagonism, low-dose risk, reception-ligand binding and enzyme kinetics, IBM-PC software and manual, Biosoft, Cambridge, U.K.).

[5] = system: DC-3F/ADII; assay: SRB cytotoxicity, DC-3F/ADII; type: cell-based, hamster; conditions: Table 3; read-out: IC50
Description: as §1, §2, §5
(§6) Concerning Table 3, experiments were carried out using the cell lines DC-3F (parent hamster lung cells), DC-3F/ADII (moderate multidrug-resistant (MDR) cells) and DC-3F/ADX (very strong MDR cells).

[6] = system: DC-3F/ADX; assay: cells; type: cell-based, hamster; conditions: Table 3; read-out: IC50
Description: as §1, §2, §5, §6

[7] = read-out: IC50 (A), Table 2A, parent cell line
[8] = Table 2, CCRF-CEM/VLB, read-out: IC50
[9] = Table 2A, MDR cell line, read-out: IC50 (B)
[10] = Table 6, single determinations, read-out: IC50
[11] = Table 7, CEM/VBL, read-out: IC50
[12] = Table 2, CCR-CEM/VM-1, read-out: IC50
[13] = Table 2A, Topo II gene mutated cell line, read-out: IC50 (C)

Compound	IC50 ([1]; Table 2) [µM]	IC50 ([1]; Table 6, single determinations) [µM]	IC50 ([1]; Table 7, CEM) [µM]	IC50 [1, 7] [µM]	IC50 [2, 8] [µM]	(B)/(A) ratio (fold resistance >1, collateral sensitivity <1) ([2]; Table 2A)	IC50 [2, 9] [µM]	IC50 [2, 10] [µM]	IC50 [2, 11] [µM]	IC50 [3, 12] [µM]	(C)/(A) ratio (fold resistance >1, collateral sensitivity <1) ([3]; Table 2A)	IC50 [3, 13] [µM]	IC50 [3, 10] [µM]	IC50 [4] [µM]	IC50 [5] [µM]	IC50 [6] [µM]	other results
CC(=Cc1csc(C)n1)C1CC=CCCCC(C)C(O)C(C)C(O)C(C)(C)C(O)CC(=O)O1 (stereo not drawn) [#2]	14.2	14.2	14.2	14.2	6.28	(0.44)^b	6.28	6.28	6.28	43.9	(309)^a	43.9	43.9	10.3	4.6	4.81	–
CC(=Cc1csc(C)n1)C1CC2OC2CC=CCCCCC(C)(C)CCC(=O)O1 (stereo not drawn) [#3]	272	272	272	272	22.4	(0.082)^b	22.4	22.4	22.4	11.6	(0.043)^b	11.6	11.6	9.52	3	0.972	–
C/C(=C\c1csc(C)n1)C1CC2OC2CCCCC(O)C(C)C(=O)C(C)(C)C(O)CC(=O)O1 (stereo not drawn) [#15, 8-Desmethylepothilone A]	–	0.439	0.439	–	–	–	–	2.47	2.47	–	–	–	0.764	–	–	–	IC50 [1]: 0.44 µM; Rel. Value (potency relative to Epo B) ([1]; CCRF-CEM leukemic cells): 1/1257; IC50 ([1]; Table 1, XTT): 0.439 µM; times less active than corresponding epothilone A counterpart (cytotoxicity) ([1]; see Table 1): approximately 200 times; IC50 ([2]; Table 1, XTT, read-out: IC50): 2.47 µM; IC50 ([3]; Table 1, XTT, read-out: IC50): 0.764 µM
C/C(=C\c1csc(C)n1)[C@@H]1C[C@H]2O[C@H]2CCCC[C@H](O)[C@@H](C)C(=O)C(C)(C)[C@@H](O)CC(=O)O1 [#16]	–	7.47	7.47	–	–	–	–	16.5	16.5	–	–	–	0.976	–	–	–	–

Source: patent US6603023B2 (priority 1996, dated 2003)
